# Laboratory results published in US20070191437A1, “Continuous Dosing Regimen” (priority 2003, published 2007).
# Marks after values point to notes of the source that are not given here.
# Tests used:
# [1] = Clinical 7-day QD regimen, MTD determination; assay type: in vivo
# Experimental: In the 7-day QD regimen, the 250 mg QD dose has been determined to be the MTD, as dose limiting toxicities of peripheral neuropathy/ileus were reported in 2 of 6 subjects at the 300 mg QD dose.
# [2] = test system: HCT-15 human colon carcinoma; experiment: HCT-15 human colon carcinoma xenografts; assay type: in vivo; conditions: for efficacy in inhibiting tumor growth: MDR positive line
# Source text: HCT-15 is a human colon carcinoma derived cell line. It is MDR positive, and expresses both mutant p53 and oncogenic K-ras. The HCT-15 cell line has one of the highest levels of mdr-1/P-glycoprotein expression of cells from the NCI tumor cell line panel.
# [3] = test system: NCI-H460 human non-small cell lung carcinoma; experiment: NCI-H460 xenograft model; assay type: in vivo; conditions: for activity: comparators
# Source text: NCI-H460 is a human non-small cell lung carcinoma derived cell line. It is MDR negative, has wild type p53, and contains an oncogenic K-ras mutation.
# [4] = Clinical 21-day QD regimen, MTD determination; assay type: in vivo
# [5] = Clinical safety review, adverse events by grade; assay type: in vivo, human
# Experimental: For 134 patients tested, at doses of about 200 mg QD, 250 mg QD, 300 mg QD, 125 mg BID, 150 mg BID, and 175 mg BID, 16 reported anemia, of which 11 were Grades I or II and 5 were Grades (III or IV); 1 reported Grade I or II alpoecia; 8 reported Grade I or II neutropenia; and none reported fluid retention, for which Grade I is defined as mild, Grade II is defined as moderate, Grade III is defined as severe, Grade IV is defined as life threatening.
# HT-29 colon carcinoma = experiment: Staged human tumor xenograft, HT-29; assay type: in vivo; conditions: oral 75 mg/kg/d QD, d 10-14, 20-24
# Source text: (§1) (2-((hydroxyphenyl)amino)pyrid-3-yl)-4-methoxybenzenesulfonamide inhibited the growth of a variety of human tumor xenografts that were allowed to grow into established tumors prior to the initiation of treatment. As summarized below, activity was seen against established tumors derived from colon, breast and lung carcinomas. (2-((4-hydroxyphenyl)amino)pyrid-3-yl)-4-methoxybenzenesulfonamide was also active against a human pancreatic tumor xenograft grown in the orthotopic site.
# MiaPaCa2 pancreatic = MiaPaCa2 pancreatic xenograft model, combination with gemcitabine; assay type: in vivo; conditions: in combination with gemcitabine
# [6] = test system: MDA-MB-468 breast carcinoma; experiment: Staged human tumor xenograft, MDA-MB-468; assay type: in vivo
# Source text: as §1
# [7] = Clinical single dose and 5-day repeated dose study in 57 cancer subjects; assay type: in vivo, human
# Experimental: (2-((4-hydroxyphenyl)amino)pyrid-3-yl)-4-methoxybenzenesulfonamide was evaluated in 57 cancer subjects in single dose (16 subjects) and 5-day repeated dose regimens (41 subjects). The doses administered in the single dose segment were 80 to 480 mg/m^2/day. In the 5-day repeated dose regimen (2-((4-hydroxyphenyl)amino)pyrid-3-yl)-4-methoxybenzenesulfonamide was given at 30 to 240 mg/m^2/day for a single cycle. […] Adverse drug reactions from the single dose and 5-day repeated dose segments included nausea and vomiting, diarrhea, epigastric pain, ileus and evidence of peripheral neuropathy. For the single dose segment, the dose limiting toxicity (DLT) was Grade 3 peripheral neuropathy in 1 of 5 subjects at 480 mg/m^2/day. In the 5-day repeated dose regimen the dose limiting toxicities were Grade 3 peripheral neuropathy in 1 of 4 subjects at 210 mg/m^2/day and Grade 4 intestinal paralysis in 1 of 4 subjects at 210 mg/m^2/day and in 1 of 6 subjects at 240 mg/m^2/day.
# [8] = Calu-6 flank xenograft model in male scid mice, HPM with docetaxel (Example 1); assay type: in vivo; conditions: male, scid, mouse, in vivo
# Experimental: (§2) Male scid mice (Charles River Labs.) were injected subcutaneously with 0.2 mL of 2×10^6 Calu-6 cells (1:1 with matrigel) on study day 0. The cellular implantation site was the right flank, and all mice were ear tagged. On day 13, tumors were size matched to 247 mm^3 and animals were placed into the therapy groups outlined in the study design below. All treatments were initiated on day 13 post tumor inoculation. The tumors were measured with calipers 2 times per week after tumors were palpable. Tumor volumes were calculated according to the formula V=L×W^2/2 (V: volume, mm^3; L: length, mm. W: width, mm). Mouse group weights were taken 2 times per week to monitor weight loss from toxicity or excessive tumor burden. The mice were humanely euthanized when the tumor volumes reached a predetermined size. The study design was as follows:
# (§3) 1. HPM vehicle and docetaxel at 20 mg/kg/day.
# (§4) 2. HPM vehicle and docetaxel at 10 mg/kg/day.
# (§5) 3. HPM at 100 mg/kg/day and docetaxel vehicle.
# (§6) 4. HPM at 75 mg/kg/day and docetaxel vehicle.
# (§7) 5. HPM at 100 mg/kg/day and docetaxel at 20 mg/kg/day.
# (§8) 6. HPM at 100 mg/kg/day and docetaxel at 10 mg/kg/day.
# (§9) 7. HPM at 75 mg/kg/day and docetaxel at 20 mg/kg/day.
# (§10) 8. HPM at 75 mg/kg/day and docetaxel at 10 mg/kg/day.
# (§11) 9. HPM vehicle and docetaxel vehicle.
# (§12) HPM was dosed orally on a (q.d.×5, 5 days off)×2 schedule. The drug was formulated in 1% HCl, 4% ethanol, and 95% D5W. Docetaxel was dosed intravenously, (q.10d.)×2 and formulated in saline.
# [9] = test system: M5076 murine reticulum cell sarcoma; conditions: for response of the model to the drug / ILS: comparator drugs, dose not given
# Calu-6 lung carcinoma = experiment: Staged human tumor xenograft, Calu-6; assay type: in vivo; conditions: oral 75 mg/kg/d QD, d 10-14, 20-24
# Source text: as §1
# C26 colon tumors = C26 colon tumors grown in the flank of CDF-1 mice; assay type: in vivo
# Calu-6 lung = Calu-6 lung subcutaneous flank xenografts in male nude mice, HPM with cisplatin (Example 6); assay type: in vivo; conditions: 10 mg/kg/day i.p., q.d × 1
# Experimental: In a non-small cell lung cancer study, tumor cells were inoculated s.c. into male nude mice on day 0. On day 10, mice bearing established tumors were size matched at about 233 mm^3 and placed into the following groups: • 1. […]., 5 days on, 5 days off ×2) • 2. PM-75 mg/kg/day (p.o., q.d., 5 days on, 5 days off×2) • 3. PM-0 mg/kg/day (p.o., q.d., 5 days on, 5 days off ×2) • 4. […] Cisplatin 0 mg/kg/day (ip, qd ×1) • 6. […] Combination Therapy Vehicles
# MDA-MB-468 breast = MDA-MB-468 breast subcutaneous flank xenografts in female nude mice, HPM with docetaxel (Example 3); assay type: in vivo; conditions: 33.3 mg/kg/day i.v., q.d × 1
# Experimental: Tumor cells derived from serially passaged tumor fragments were inoculated s.c. in female nude mice on day 0. On day 10, mice bearing established tumors were size matched at about 231 mm^3 and divided into the following groups:
# 1. HPM at 100 mg/kg/day (p.o., q.d., 5 days on, 5 days off ×2)
# 2. HPM at 75 mg/kg/day (p.o., q.d., 5 days on, 5 days off ×2)
# 3. HPM at 0 mg/kg/day (p.o., q.d., 5 days on, 5 days off ×2)
# 4. Docetaxel at 33.3 mg/kg/day (i.v., q.d. ×1)
# 5. Docetaxel at 0 mg/kg/day (i.v., q.d. ×1)
# 6. Combination therapy: HPM at 100 mg/kg/day and docetaxel at 33.3 mg/kg/day
# 7. Combination therapy: HPM at 75 mg/kg/day and docetaxel at 33.3 mg/kg/day
# Calu-6 cells = experiment: Calu-6 flank xenograft model in male scid mice, HPM with docetaxel (Example 1); assay type: in vivo; conditions: docetaxel q.10d. at 20 mg/kg/day
# Experimental: as §2, §3, §4, §5, §6, §7, §8, §9, §10, §11, §12
# [10] = target: biotinylated bovine brain tubulin; conditions: competition of [3H]colchicine
# [11] = 134 patients, 200-300 mg QD, 125-175 mg BID
# [12] = 5-day repeated dose regimen, 210 mg/m^2/day
structure (smiles),measurement,setting,value
"COc1ccc(S(=O)(=O)Nc2cccnc2Nc2ccc(O)cc2)cc1 [ABT-751, N-(2-((4-Hydroxyphenyl)amino)pyridin-3-yl)-4-methoxybenzenesulfonamide]",MTD,[1]; 7-day QD regimen,250 mg
same,"dose limiting toxicities of peripheral neuropathy/ileus, subjects","[1]; human, in vivo, 7 days",2 of 6
same,% ILS,"[2]; 50 mg/kg/d PO, QD, days 1-8",34%
same,T/C (no. trials),"[2]; 50 mg/kg/d PO, QD, days 1-8",50(2)
same,efficacy in inhibiting tumor growth,[2],effective in inhibiting tumor growth
same,"T/C, mean tumor volume at day 13",[3]; day 13 vs vehicle control,58%
same,ILS (delay in tumor growth),[3]; in vivo,32%
same,MTD,[4]; QD regimen given for 21 days,200 mg
same,"dose limiting toxicities of fatigue, anorexia and suspect small bowel obstruction, subjects","[4]; human, in vivo, 21 days",2/3
same,patients who reported Grade I or II alopecia,[5]; [11],1
same,patients who reported Grade I or II neutropenia,[5]; [11],8
same,patients who reported anemia,[5]; [11],16
same,patients who reported fluid retention,[5]; [11],none
same,patients with anemia of Grades I or II,[5]; [11],11
same,patients with anemia of Grades III or IV,[5]; [11],5
same,"myelosuppression, renal or hepatic toxicity",[5]; review of the safety data of the three studies,"no significant myelosuppression, renal or hepatic toxicity"
same,% ILS,HT-29 colon carcinoma,50%
same,antitumor activity compared to single agent alone,MiaPaCa2 pancreatic,increase in antitumor activity
same,% T/C,"[6]; oral 50 mg/kg/d QD, d 1-21",46%
same,% T/C,"[6]; oral 75 mg/kg/d QD, d 10-14, 20-24",33%
same,% T/C,"[6]; oral 100 mg/kg/d QD, d 10-14, 20-24",25%
same,"dose limiting toxicity: Grade 3 peripheral neuropathy, subjects",[7]; [12],1 of 4
same,"dose limiting toxicity: Grade 4 intestinal paralysis, subjects",[7]; [12],1 of 4
same,"dose limiting toxicity: Grade 4 intestinal paralysis, subjects","[7]; 5-day repeated dose regimen, 240 mg/m^2/day",1 of 6
same,AUC versus dose,[7]; range of 30 to 480 mg/m^2/day,increased proportionally with dose
same,accumulation,[7]; range of 30 to 480 mg/m^2/day,no apparent accumulation
same,"dose limiting toxicity: Grade 3 peripheral neuropathy, subjects","[7]; single dose segment, 480 mg/m^2/day",1 of 5
same,MTD,"[8]; po, HPM orally (q.d.×5, 5 days off)×2, mice",100 mg/kg/day
same,ILS (percent increase in life span),[9]; 150 mg/kg orally once a day for 5 days,42%
same,approximate MTD,[9]; orally once a day for 5 days,~150 mg/kg
same,% ILS,Calu-6 lung carcinoma,58%
same,antitumor activity,C26 colon tumors; 5-day schedule,only marginally active
same,antitumor activity,"C26 colon tumors; extended dosing, equivalent to BCNU at the MTD",significant antitumor response
"N.N.[Cl][Pt][Cl] [Cisplatin, cisplatin]",% TGD^a: median % TGD increase compared to vehicle treated controls in time to 1 cc,Calu-6 lung,71*** %
O=P1(N(CCCl)CCCl)NCCCO1 (centres unmarked) [cyclophosphamide],response of the model to the drug,[9],sensitive
CC(=O)O[C@@]12CO[C@@H]1C[C@H](O)[C@@]1(C)C(=O)[C@H](O)C3=C(C)[C@@H](OC(=O)[C@H](O)[C@@H](NC(=O)OC(C)(C)C)c4ccccc4)C[C@@](O)([C@@H](OC(=O)c4ccccc4)[C@H]21)C3(C)C [docetaxel],% TGD^a: median % TGD increase compared to vehicle treated controls in time to 1 cc,MDA-MB-468 breast,67*** %
same,MTD,"[8]; intravenous, docetaxel on a q.10d.×2 schedule, mice",25 mg/kg/day
same,maximum wt loss,Calu-6 cells,8%
COc1cccc2c1C(=O)c1c(O)c3c(c(O)c1C2=O)C[C@@](O)(C(=O)CO)C[C@@H]3O[C@H]1C[C@H](N)[C@H](O)[C@H](C)O1 [doxorubicin],ILS,[9],13%
"CC(=O)O[C@H]1C(=O)[C@@]2(C)[C@H]([C@H](OC(=O)c3ccccc3)[C@]3(O)C[C@H](OC(=O)[C@H](O)[C@@H](NC(=O)c4ccccc4)c4ccccc4)C(C)=C1C3(C)C)[C@]1(OC(C)=O)CO[C@@H]1C[C@@H]2O [paclitaxel, reference compound]",efficacy in inhibiting tumor growth,[2],not efficacious
same,activity,[3],lacked activity
same,response of the model to the drug,[9],resistant
same,antitumor activity,"C26 colon tumors; comparator, dose not given",not efficacious
CC[C@]1(O)C[C@@H]2CN(CCc3c([nH]c4ccccc34)[C@@](C(=O)OC)(c3cc4c(cc3OC)N(C)[C@H]3[C@@](O)(C(=O)OC)[C@H](OC(C)=O)[C@]5(CC)C=CCN6CC[C@]43[C@@H]65)C2)C1 [vinblastine],Ki,[10],> 100 µM
"CC[C@]1(O)C[C@H]2CN(CCc3c([nH]c4ccccc34)[C@@](C(=O)OC)(c3cc4c(cc3OC)N(C=O)[C@H]3[C@@](O)(C(=O)OC)[C@H](OC(C)=O)[C@]5(CC)C=CCN6CC[C@]43[C@@H]65)C2)C1 [vincristine, reference compound]",efficacy in inhibiting tumor growth,[2],not efficacious
same,activity,[3],lacked activity
same,ILS,[9],17%
